Earlier results in patent US12268682B2, “Anticancer drug FL118 formulation for treatment of human cancer” (CANGET BIOTEKPHARMA, LLC, priority 2019, dated 2025).

How the values were obtained:
[1] = beagle dogs; cited from earlier work
[2] = test system: cisplatin-resistant pancreatic cancer cells; conditions: cited from earlier work
cancer stem cells (CSCs) = conditions: cited from earlier work

In the case of `CC[C@@]1(O)C(=O)OCc2c1cc1n(c2=O)Cc2cc3cc4c(cc3nc2-1)OCO4` [FL118], the “hematopoietic and biochemical toxicities” value [1] is given as “very low”, the “activity on cisplatin-resistant pancreatic cancer cells” value [2] is given as “preferentially targets and kills” and the “spheroid formation of pancreatic cancer stem cells” value [2] is given as “inhibits”. For the same molecule, the “expression of CSC markers (ABCG2, ALDH1A1, Oct4)” value (cancer stem cells (CSCs)) was “downregulates” and the “invasive ability of CSCs” value (cancer stem cells (CSCs)) was “effectively decreases”.
